Measurements from ChEMBL document CHEMBL4665695, “Antifungal Phenols from Woodfordia uniflora Collected in Oman” (2020).
Values after ≈ are worked out from the molar mass of the structure shown.

Experiments:
Type in all cases: functional
Cryptococcus neoformans [1] = experiment: Antifungal activity against Cryptococcus neoformans H99 by CLSI protocol-based broth serial dilution method
Candida albicans = experiment: Antifungal activity against Candida albicans SC5314 by CLSI protocol-based broth serial dilution method
Cryptococcus neoformans [2] = experiment: Antifungal activity against Cryptococcus neoformans JEC21 by CLSI protocol-based broth serial dilution method

## O=C(Oc1cc(O)c2c(c1)O[C@@H](c1ccc(O)c(O)c1)CC2)c1cc(O)c(O)c(O)c1
Cryptococcus neoformans [1]
  MIC: 1.9 µM (≈ 0.81 µg/mL)
Candida albicans
  MIC: 14.8 µM (≈ 6.31 µg/mL)
Cryptococcus neoformans [2]
  MIC: 3.8 µM (≈ 1.62 µg/mL)

## Oc1cc(O)c2c(c1)O[C@H](c1ccc(O)c(O)c1)[C@@H](O)[C@@H]2c1c(O)cc(O)c2c1O[C@H](c1ccc(O)c(O)c1)[C@@H](O)C2
Cryptococcus neoformans [1]
  MIC: 5.4 µM (≈ 3.12 µg/mL)
Candida albicans
  MIC: > 86.5 µM
Cryptococcus neoformans [2]
  MIC: 5.4 µM (≈ 3.12 µg/mL)

## O=C(OC[C@H]1O[C@@H](Oc2c(-c3ccc(O)cc3)oc3cc(O)cc(O)c3c2=O)[C@H](O)[C@@H](O)[C@@H]1O)c1cc(O)c(O)c(O)c1
Cryptococcus neoformans [1]
  MIC: 20.8 µM (≈ 12.5 µg/mL)
Candida albicans
  MIC: > 83.3 µM
Cryptococcus neoformans [2]
  MIC: 83.3 µM (≈ 50 µg/mL)

## O=C(O)c1cc(O)c(O)c(O)c1 [GALLIC ACID]
Cryptococcus neoformans [1]
  MIC: 147 µM (≈ 25 µg/mL)
Candida albicans
  MIC: > 294 µM
Cryptococcus neoformans [2]
  MIC: 147 µM (≈ 25 µg/mL)

## O=C(OC[C@H]1O[C@@H](Oc2c(-c3ccc(O)c(O)c3)oc3cc(O)cc(O)c3c2=O)[C@H](O)[C@@H](O)[C@@H]1O)c1cc(O)c(O)c(O)c1
Cryptococcus neoformans [1]
  MIC: 2.6 µM (≈ 1.6 µg/mL)
Candida albicans
  MIC: > 325 µM

## O=C(O[C@H]1[C@H](c2c(O)cc(O)c3c2O[C@H](c2ccc(O)c(O)c2)[C@@H](O)C3)c2c(O)cc(O)cc2O[C@@H]1c1ccc(O)c(O)c1)c1cc(O)c(O)c(O)c1
Cryptococcus neoformans [1]
  MIC: 4.2 µM (≈ 3.07 µg/mL)
Candida albicans
  MIC: 17.1 µM (≈ 12.5 µg/mL)
Cryptococcus neoformans [2]
  MIC: 8.5 µM (≈ 6.21 µg/mL)

## Oc1cc(O)c2c(c1)O[C@H](c1ccc(O)c(O)c1)[C@@H](O)C2 [CIANIDANOL]
Cryptococcus neoformans [1]
  MIC: 10.7 µM (≈ 3.11 µg/mL)
Candida albicans
  MIC: > 690 µM

## C[C@]12OC(=O)C[C@H]1[C@H]1Oc3cc(O)cc(O)c3C[C@H]1O2
Cryptococcus neoformans [1]
  MIC: 180 µM (≈ 50 µg/mL)
Candida albicans
  MIC: > 180 µM
Cryptococcus neoformans [2]
  MIC: 180 µM (≈ 50 µg/mL)

## O=c1c(O[C@@H]2O[C@H](CO)[C@@H](O)[C@H](O)[C@H]2O)c(-c2ccc(O)c(O)c2)oc2cc(O)cc(O)c12 [ISOQUERCETIN]
Cryptococcus neoformans [1]
  MIC: 53.9 µM (≈ 25 µg/mL)
Candida albicans
  MIC: > 108 µM
Cryptococcus neoformans [2]
  MIC: 108 µM (≈ 50 µg/mL)

## COc1cc(O)c2c(=O)c(O[C@@H]3O[C@H](COC(=O)c4cc(O)c(O)c(O)c4)[C@@H](O)[C@H](O)[C@H]3O)c(-c3ccc(O)c(O)c3)oc2c1
Cryptococcus neoformans [1]
  MIC: 10 µM (≈ 6.31 µg/mL)
Candida albicans
  MIC: > 317 µM

## O=C(Oc1cc(O)c2c(c1)O[C@H](c1ccc(O)c(O)c1)[C@@H](O)C2)c1cc(O)c(O)c(O)c1
Cryptococcus neoformans [1]
  MIC: 1.8 µM (≈ 0.796 µg/mL)
Candida albicans
  MIC: 56.6 µM (≈ 25 µg/mL)

## O=C(Oc1cc([C@H]2Oc3cc(O)cc(O)c3C[C@@H]2O)ccc1O)c1cc(O)c(O)c(O)c1
Cryptococcus neoformans [1]
  MIC: 113 µM (≈ 50 µg/mL)
Candida albicans
  MIC: > 113 µM
Cryptococcus neoformans [2]
  MIC: 113 µM (≈ 50 µg/mL)

## O=C(Oc1ccc([C@H]2Oc3cc(O)cc(O)c3C[C@@H]2O)cc1O)c1cc(O)c(O)c(O)c1
Cryptococcus neoformans [1]
  MIC: 113 µM (≈ 50 µg/mL)
Candida albicans
  MIC: 56.6 µM (≈ 25 µg/mL)
Cryptococcus neoformans [2]
  MIC: 113 µM (≈ 50 µg/mL)

## COc1cc(O)c2c(=O)c(O)c(-c3ccc(O[C@@H]4O[C@H](CO)[C@@H](O)[C@H](O)[C@H]4O)c(O)c3)oc2c1
Cryptococcus neoformans [1]
  MIC: 52.3 µM (≈ 25 µg/mL)
Candida albicans
  MIC: > 105 µM
Cryptococcus neoformans [2]
  MIC: 105 µM (≈ 50 µg/mL)

## O=C(Oc1cc(O)c2c(c1)O[C@H](c1ccc(O)c(O)c1)CC2)c1cc(O)c(O)c(O)c1
Cryptococcus neoformans [1]
  MIC: 1.9 µM (≈ 0.81 µg/mL)
Candida albicans
  MIC: 14.8 µM (≈ 6.31 µg/mL)
Cryptococcus neoformans [2]
  MIC: 3.8 µM (≈ 1.62 µg/mL)

## COc1cc(O)c2c(=O)c(O[C@@H]3O[C@@H](C)[C@H](O)[C@@H](O)[C@H]3O)c(-c3ccc(O)c(O)c3)oc2c1
Cryptococcus neoformans [1]
  MIC: 27 µM (≈ 12.5 µg/mL)
Candida albicans
  MIC: > 433 µM

## COc1cc(O)c2c(=O)c(O[C@@H]3O[C@@H](C)[C@H](O)[C@@H](O)[C@H]3O)c(-c3ccc(O)cc3)oc2c1
Cryptococcus neoformans [1]
  MIC: 56 µM (≈ 25 µg/mL)
Candida albicans
  MIC: > 112 µM
Cryptococcus neoformans [2]
  MIC: 56 µM (≈ 25 µg/mL)

## OC(Cn1cncn1)(Cn1cncn1)c1ccc(F)cc1F [FLUCONAZOLE]
Cryptococcus neoformans [1]
  MIC: 25.5 µM (≈ 7.81 µg/mL)
Candida albicans
  MIC: 1.6 µM (≈ 0.49 µg/mL)
Cryptococcus neoformans [2]
  MIC: 6.5 µM (≈ 1.99 µg/mL)

## CCOC(=O)c1cc(O)c(O)c(O)c1 [ETHYLGALLATE]
Cryptococcus neoformans [1]
  MIC: 126 µM (≈ 25 µg/mL)
Candida albicans
  MIC: > 252 µM
Cryptococcus neoformans [2]
  MIC: 252 µM (≈ 50 µg/mL)

## CC(=O)[C@@H](CC(=O)O)[C@H]1Oc2cc(O)cc(O)c2C[C@@H]1O
Cryptococcus neoformans [1]
  MIC: 169 µM (≈ 50 µg/mL)
Candida albicans
  MIC: > 169 µM
Cryptococcus neoformans [2]
  MIC: 169 µM (≈ 50 µg/mL)

## COc1c(O)cc(C(=O)O)cc1O
Cryptococcus neoformans [1]
  MIC: 67.9 µM (≈ 12.5 µg/mL)
Candida albicans
  MIC: > 272 µM
Cryptococcus neoformans [2]
  MIC: 272 µM (≈ 50 µg/mL)
